Assay results from US10729768B2, “Combination of anti-CD20 antibody and PI3 kinase selective inhibitor” (TG Therapeutics, Inc., priority 2012, dated 2020).

Columns and labels:
Format in all cases: cell-based
[1] = system: CD19-positive cells; assay: B cell depletion from human whole blood (HWB), flow cytometry, CD19; settings: 1 μM, 24 hrs
Experimental: (§1) A flow cytometry assay was used to compare the ability of S-isomer of compound of formula A, Ublituximab (Ubx), and combinations thereof to deplete B cells from human whole blood (HWB). In this assay, 50 μl of HWB sample was treated with either S-isomer of a compound of formula A (1000 nM), UBX (100 μg/ml to 0.1 μg/ml), or UBX in combination with S-isomer of a compound of formula A at 1000 nM and incubated for 24 hrs at 37° C. and 5% CO2. 20 μl of treated sample was taken in a 1.5 ml centrifuge tube and labeled with CD45 FITC and CD19 PE or CD20 FITC antibody and incubated in the dark for 1 hour at RT. 1 ml of red blood cell (RBC) lysing solution was added, and tubes were centrifuged at 3000 rpm for 10 minutes. […] The tubes were vortexed, and 5000 events were acquired on a Guava® easyCyte™ flow cytometer and analyzed with Incyte Software.
(§2) Gated population of CD45-positive cells were further analyzed for CD19. The number of cells that were positive for CD45 and CD19 was calculated, and the data was expressed as the percentage of CD19 positive cells in the population. CD20-positive populations were gated with fluorescence positive minus unlabeled cells, and the data was expressed as the percentage of CD20-positive cells in the population. The loss of CD19/CD20 population from control was calculated and expressed as % depletion with respect to control.

[2] = system: CD20-positive cells; assay: B cell depletion from human whole blood (HWB), flow cytometry, CD20; settings: 1 μM, 24 hrs
Experimental: as §1, §2

[3] = system: DB Cells; assay: cell cycle assay, flow cytometry; settings: DB cells
Experimental: (§3) A cell cycle assay reagent (Millipore) was used to determine the effect of S-isomer of a compound of formula A, UBX, and combinations thereof on the cell cycle in cancerous cells. […] The cells were transferred to microfuge tubes to receive 50 μl of cell cycle reagent and incubated for 30 minutes at RT away from light. Cells were then diluted with 300-400 μl PBS, and a minimum of 10,000 events were acquired on a Guava® easyCyte™ flow cytometer. The data was analyzed with Express Pro software and the percentage of the cell population in different cell cycle stages with respect to control was presented in histograms.

[4] = system: U266B1 cells; assay: cell cycle assay, flow cytometry
Experimental: as §3

[5] = system: Daudi cells; assay: cell cycle assay, flow cytometry
Experimental: as §3

[6] = system: Raji Cells; assay: cell cycle assay, flow cytometry
Experimental: as §3

## CC(C)Oc1ccc(-c2nn([C@@H](C)c3oc4ccc(F)cc4c(=O)c3-c3cccc(F)c3)c3ncnc(N)c23)cc1F [S-isomer, (S)-2-(1-(4-amino-3-(3-fluoro-4-isopropoxyphenyl)-1H-pyrazolo[3,4-d]pyrimidin-1-yl)ethyl)-6-fluoro-3-(3-fluorophenyl)-4H-chromen-4-one]
[1]
  reduction in CD19-positive HWB B-cells: not observed
[2]
  reduction in CD20-positive HWB B-cells: not observed
[3]; 72 h, 0.1 nM
  G0/G1, percentage of the cell population: 54.37
  G2/M, percentage of the cell population: 39.41
  S, percentage of the cell population: 4.84
  Sub G0, percentage of the cell population: 0.84
[3]; 72 h, 1 nM
  G0/G1, percentage of the cell population: 50.61
  G2/M, percentage of the cell population: 41.44
  S, percentage of the cell population: 6.53
  Sub G0, percentage of the cell population: 0.54
[3]; 72 h, 10 nM
  G0/G1, percentage of the cell population: 47.22
  G2/M, percentage of the cell population: 46.85
  S, percentage of the cell population: 4.98
  Sub G0, percentage of the cell population: 0.55
[3]; 72 h, 100 nM
  G0/G1, percentage of the cell population: 41.21
  G2/M, percentage of the cell population: 50.22
  S, percentage of the cell population: 6.96
  Sub G0, percentage of the cell population: 0.43
[3]; 72 h, 1000 nM
  G0/G1, percentage of the cell population: 0.75
  G2/M, percentage of the cell population: 92.79
  S, percentage of the cell population: 0.42
  Sub G0, percentage of the cell population: 5.36
[3]; 72 h, 10,000 nM
  G0/G1, percentage of the cell population: 1.40
  G2/M, percentage of the cell population: 94.87
  S, percentage of the cell population: 0.89
  Sub G0, percentage of the cell population: 2.06
[4]; 72 h, 0.1 nM
  G0/G1, percentage of the cell population: 59.26
  G2/M, percentage of the cell population: 30.71
  S, percentage of the cell population: 6.55
  Sub G0, percentage of the cell population: 2.75
[4]; 72 h, 1 nM
  G0/G1, percentage of the cell population: 57.73
  G2/M, percentage of the cell population: 36.19
  S, percentage of the cell population: 4.87
  Sub G0, percentage of the cell population: 0.94
[4]; 72 h, 10 nM
  G0/G1, percentage of the cell population: 55.33
  G2/M, percentage of the cell population: 39.28
  S, percentage of the cell population: 5.38
  Sub G0, percentage of the cell population: 0.76
[4]; 72 h, 100 nM
  G0/G1, percentage of the cell population: 48.69
  G2/M, percentage of the cell population: 45.76
  S, percentage of the cell population: 5.49
  Sub G0, percentage of the cell population: 0.75
[4]; 72 h, 1000 nM
  G0/G1, percentage of the cell population: 47.80
  G2/M, percentage of the cell population: 47.13
  S, percentage of the cell population: 4.69
  Sub G0, percentage of the cell population: 0.88
[4]; 72 h, 10,000 nM
  G0/G1, percentage of the cell population: 2.00
  G2/M, percentage of the cell population: 64.31
  S, percentage of the cell population: 0.94
  Sub G0, percentage of the cell population: 28.88
[5]; 72 h, 0.1 nM
  G0/G1, percentage of the cell population: 49.56
  G2/M, percentage of the cell population: 33.23
  S, percentage of the cell population: 14.13
  Sub G0, percentage of the cell population: 0.34
[5]; 72 h, 1 nM
  G0/G1, percentage of the cell population: 48.11
  G2/M, percentage of the cell population: 36.75
  S, percentage of the cell population: 13.27
  Sub G0, percentage of the cell population: 0.74
[5]; 72 h, 10 nM
  G0/G1, percentage of the cell population: 46.84
  G2/M, percentage of the cell population: 37.79
  S, percentage of the cell population: 12.55
  Sub G0, percentage of the cell population: 1.68
[5]; 72 h, 100 nM
  G0/G1, percentage of the cell population: 47.39
  G2/M, percentage of the cell population: 38.05
  S, percentage of the cell population: 11.33
  Sub G0, percentage of the cell population: 1.30
[5]; 72 h, 1000 nM
  G0/G1, percentage of the cell population: 48.27
  G2/M, percentage of the cell population: 40.10
  S, percentage of the cell population: 7.91
  Sub G0, percentage of the cell population: 2.22
[5]; 72 h, 10,000 nM
  G0/G1, percentage of the cell population: 2.53
  G2/M, percentage of the cell population: 65.03
  S, percentage of the cell population: 21.92
  Sub G0, percentage of the cell population: 5.01
[6]; 72 h, 0.1 nM
  G0/G1, percentage of the cell population: 56.54
  G2/M, percentage of the cell population: 33.63
  S, percentage of the cell population: 8.38
  Sub G0, percentage of the cell population: 1.32
[6]; 72 h, 1 nM
  G0/G1, percentage of the cell population: 56.93
  G2/M, percentage of the cell population: 34.13
  S, percentage of the cell population: 5.51
  Sub G0, percentage of the cell population: 1.89
[6]; 72 h, 10 nM
  G0/G1, percentage of the cell population: 55.96
  G2/M, percentage of the cell population: 34.81
  S, percentage of the cell population: 5.80
  Sub G0, percentage of the cell population: 1.06
[6]; 72 h, 100 nM
  G0/G1, percentage of the cell population: 52.81
  G2/M, percentage of the cell population: 37.80
  S, percentage of the cell population: 6.72
  Sub G0, percentage of the cell population: 1.04
[6]; 72 h, 1000 nM
  G0/G1, percentage of the cell population: 52.04
  G2/M, percentage of the cell population: 41.21
  S, percentage of the cell population: 3.92
  Sub G0, percentage of the cell population: 1.29
[6]; 72 h, 10,000 nM
  G0/G1, percentage of the cell population: 10.12
  G2/M, percentage of the cell population: 58.09
  S, percentage of the cell population: 23.17
  Sub G0, percentage of the cell population: 4.90
